Data on one compound can be found in patent US8283009B2, “Use of a material based on a thermoplastic polymer having a high content of antioxidants for packaging dianhydrohexitols” (Roquette Freres, priority 2007, dated 2012).

The structures appear in SMILES notation.

Data set [1] is described as follows: Analysis for peroxides on the packaged product after storage. The settings on record: packaged in accordance with the invention (PE + carbon black); 50° C.; after 4 months of storage. It counts as physicochemical.
Data set [2] in a line: Storage stability of isosorbide in sealed packaging sachets at 50° C., pH-metry. It counts as physicochemical. From the text:
50 g of isosorbide in solid form (flakes) are introduced into a sachet (25 cm×25 cm) constituted of the packaging material to be tested. The sachet is immediately sealed by welding using an impulse heat sealer (model SZ 380 sold by Joisten & Kettenbaum GmbH & Co, Bergisch Gladbach, Germany). The thus sealed sachet is in turn introduced into a second sachet made of aluminum comprising a polyethylene coating, sealed by welding using the same heat sealer in order to ensure leaktightness with respect to the external atmosphere. The samples thus packaged are placed in a ventilated oven, thermostatted at a temperature of 50° C. A control sample is enclosed in a glass flask and stored under the same conditions.
After a given period, the whole of the sample of isosorbide is extracted from the packagings and dissolved to 40% by weight of solids in osmosed water. […]

For `O[C@@H]1CO[C@H]2[C@@H]1OC[C@@H]2O` [isosorbide, 1,4:3,6-dianhydrosorbitol], the “presence of peroxides (markers of oxidation phenomena, instability)” value in data set [1] was “did not show any presence of peroxides”. In addition, the “drop in pH after storage” value in data set [2] (packaged in accordance with the invention (PE + carbon black), after 4 months of storage) is given as “no drop in pH”. The “pH of the solution” value in data set [2] (packaging PE + carbon black (according to the invention), storage 0 day, 40% by weight of solids in osmosed water) was “pH 7.6”; in data set [2] (packaging PE + carbon black (according to the invention), storage 1 month, 40% by weight in osmosed water), “pH 7.3”; in data set [2] (packaging PE + carbon black (according to the invention), storage 1.5 month, 40% by weight in osmosed water), “pH 7.4”; in data set [2] (packaging PE + carbon black (according to the invention), storage 2 months, 40% by weight in osmosed water) it was “pH 7.5”; in data set [2] (packaging PE + carbon black (according to the invention), storage 2 weeks, 40% by weight in osmosed water) it was “pH 7.2”; in data set [2] (packaging PE + carbon black (according to the invention), storage 2.5 months, 40% by weight in osmosed water), “pH 7.5”. For the same compound, the “pH of the solution” value in data set [2] (packaging PE + carbon black (according to the invention), storage 3 months, 40% by weight in osmosed water) was “pH 7.6”; in data set [2] (packaging PE + carbon black (according to the invention), storage 4 months, 40% by weight in osmosed water), “pH 7.7”; in data set [2] (packaging Sachet 1 (comp.) branched/linear polyethylene 50%/50%, storage 0 day, 40% by weight in osmosed water), “pH 7.6”; in data set [2] (packaging Sachet 1 (comp.) branched/linear polyethylene 50%/50%, storage 1 month, 40% by weight in osmosed water), “pH 7.4”; in data set [2] (packaging Sachet 1 (comp.) branched/linear polyethylene 50%/50%, storage 1.5 month, 40% by weight in osmosed water), “pH 7.4”; in data set [2] (packaging Sachet 1 (comp.) branched/linear polyethylene 50%/50%, storage 2 weeks, 40% by weight in osmosed water) it was “pH 7.5”. In addition, the “pH of the solution” value in data set [2] (packaging Sachet 2 (comp.) branched/linear polyethylene 70%/30%, storage 0 day, 40% by weight in osmosed water) is given as “pH 7.6”; in data set [2] (packaging Sachet 2 (comp.) branched/linear polyethylene 70%/30%, storage 2 weeks, 40% by weight in osmosed water), “pH 7.5”; in data set [2] (packaging Sachet 3 (comp.) 100% of branched polyethylene, storage 0 day, 40% by weight in osmosed water), “pH 7.6”; in data set [2] (packaging Sachet 4 (comp.) 100% of linear polyethylene, storage 0 day, 40% by weight in osmosed water), “pH 7.6”; in data set [2] (packaging Sachet 4 (comp.) 100% of linear polyethylene, storage 2 weeks, 40% by weight in osmosed water) it was “pH 7.2”. Further, in data set [2] (samples not packaged in accordance with the invention, glass 4 months, sachet 1 2 months, sachets 2 and 4 1 month, sachet 3 2 weeks), the odor after storage entry is reported as “characteristic odor of formic acid”.
